Source: US20160038468A1 (priority 2013, published 2016)
Values after ≈ are worked out from the molar mass of the structure shown. Like-named read-outs stand apart in the source and are kept apart here.

Legend:
Gardnerella vaginalis = assay: Agar dilution MIC (CLSI), Gardnerella vaginalis vaginal isolates; assay type: cell-based; conditions: for Number of strains with indicated MIC: 100 samples
Mobiluncus spp = assay: Agar dilution MIC (CLSI), Mobiluncus spp vaginal isolate; assay type: cell-based; conditions: read-out: Minimal Inhibitory Concentration (MIC)
Atopobium vaginae = assay: Agar dilution MIC (CLSI), Atopobium vaginae vaginal isolates; assay type: cell-based; conditions: for Number of strains with indicated MIC: 62 samples
Finegoldia magna = assay: Agar dilution MIC (CLSI), Finegoldia magna vaginal isolates; assay type: cell-based; conditions: for MIC: read-out: Minimal Inhibitory Concentration (MIC)
[1] = tested on: Megasphaera-like bacteria; assay: Agar dilution MIC (CLSI), Megasphaera-like bacteria vaginal isolates; assay type: cell-based; conditions: for MIC: read-out: Minimal Inhibitory Concentration (MIC)
Prevotella amnii = assay: Agar dilution MIC (CLSI), Prevotella amnii vaginal isolates; assay type: cell-based; conditions: for MIC: read-out: Minimal Inhibitory Concentration (MIC)
Peptoniphilus harei = assay: Agar dilution MIC (CLSI), Peptoniphilus harei vaginal isolates; assay type: cell-based; conditions: for MIC: read-out: Minimal Inhibitory Concentration (MIC)
[2] = tested on: B. thetaiotaomicron, ATCC 29741; conditions: agar dilution testing, from CLSI Table 5; cited from earlier work
[3] = Gardnerella vaginalis, # tested 107
[4] = Fannyhessea vaginae, # tested 62
[5] = number (%) of isolates, # tested 20
[6] = Peptoniphilus harei, # tested 23

## Cc1ncc([N+](=O)[O-])n1CCO [Metronidazole]
Gardnerella vaginalis
  activity against G vaginalis: limited activity
Gardnerella vaginalis; [3]
  MIC50: 64 µg/mL (≈ 374 µM)
  MIC90: > 128 µg/mL
Gardnerella vaginalis; MIC 8 μg/ml
  Number of strains with indicated MIC: 12
Gardnerella vaginalis; MIC 16 μg/ml
  Number of strains with indicated MIC: 16
Gardnerella vaginalis; MIC 32 μg/ml
  Number of strains with indicated MIC: 14
Gardnerella vaginalis; MIC 64 μg/ml
  Number of strains with indicated MIC: 15
Gardnerella vaginalis; MIC >[…]
  Number of strains with indicated MIC: 34
Gardnerella vaginalis; MIC […]
  Number of strains with indicated MIC: 6
Mobiluncus spp
  MIC: 0.03 µg/mL (≈ 0.175 µM)
Atopobium vaginae
  activity against Atopobium vaginae: limited activity
Atopobium vaginae; [4]
  MIC50: 128 µg/mL (≈ 748 µM)
  MIC90: > 128 µg/mL
Atopobium vaginae; MIC 8 μg/ml
  Number of strains with indicated MIC: 2
Atopobium vaginae; MIC 16 μg/ml
  Number of strains with indicated MIC: 5
Atopobium vaginae; MIC 32 μg/ml
  Number of strains with indicated MIC: 10
Atopobium vaginae; MIC 64 μg/ml
  Number of strains with indicated MIC: 8
Atopobium vaginae; MIC >[…]
  Number of strains with indicated MIC: 24
Atopobium vaginae; MIC […] μg/ml
  Number of strains with indicated MIC: 1
Atopobium vaginae; MIC […]
  Number of strains with indicated MIC: 12
Finegoldia magna; # tested 20
  MIC Range: 0.5 to 4 µg/mL
Finegoldia magna; Finegoldia magna, isolate 301303V D
  MIC: 0.5 µg/mL (≈ 2.92 µM)
Finegoldia magna; Finegoldia magna, isolate 601205V 39
  MIC: 4 µg/mL (≈ 23.4 µM)
Finegoldia magna; Finegoldia magna, isolate 601214V F
  MIC: 2 µg/mL (≈ 11.7 µM)
Finegoldia magna; Finegoldia magna, isolate 601275V c
  MIC: 4 µg/mL (≈ 23.4 µM)
Finegoldia magna; Finegoldia magna, isolate 601276V 23
  MIC: 2 µg/mL (≈ 11.7 µM)
Finegoldia magna; Finegoldia magna, isolate 601283V 14
  MIC: 2 µg/mL (≈ 11.7 µM)
Finegoldia magna; Finegoldia magna, isolate 601293V 27
  MIC: 2 µg/mL (≈ 11.7 µM)
Finegoldia magna; Finegoldia magna, isolate 601295V 25
  MIC: 1 µg/mL (≈ 5.84 µM)
Finegoldia magna; Finegoldia magna, isolate 601298V 30
  MIC: 2 µg/mL (≈ 11.7 µM)
Finegoldia magna; Finegoldia magna, isolate 601308V 24
  MIC: 2 µg/mL (≈ 11.7 µM)
Finegoldia magna; Finegoldia magna, isolate 601315V 17
  MIC: 4 µg/mL (≈ 23.4 µM)
Finegoldia magna; Finegoldia magna, isolate 601315V 17A
  MIC: 4 µg/mL (≈ 23.4 µM)
Finegoldia magna; Finegoldia magna, isolate 601320V 24
  MIC: 4 µg/mL (≈ 23.4 µM)
Finegoldia magna; Finegoldia magna, isolate 601323V K
  MIC: 0.5 µg/mL (≈ 2.92 µM)
Finegoldia magna; Finegoldia magna, isolate 601330V c
  MIC: 4 µg/mL (≈ 23.4 µM)
Finegoldia magna; Finegoldia magna, isolate 601335V c1
  MIC: 1 µg/mL (≈ 5.84 µM)
Finegoldia magna; Finegoldia magna, isolate 601340V 27
  MIC: 4 µg/mL (≈ 23.4 µM)
Finegoldia magna; Finegoldia magna, isolate 601359V c
  MIC: 4 µg/mL (≈ 23.4 µM)
Finegoldia magna; Finegoldia magna, isolate 601363V 6
  MIC: 1 µg/mL (≈ 5.84 µM)
Finegoldia magna; Finegoldia magna, isolate 601367V c
  MIC: 4 µg/mL (≈ 23.4 µM)
Finegoldia magna; Finegoldia magna, # tested 20
  MIC50: 2 µg/mL (≈ 11.7 µM)
  MIC90: 4 µg/mL (≈ 23.4 µM)
Finegoldia magna; [5]
  Intermediate: 0 µg/mL
  Susceptible: 20 (100) μg/ml
[1]; 427510 h, isolate 427507 H
  MIC: 0.25 µg/mL (≈ 1.46 µM)
[1]; # tested 25
  MIC50: 0.25 µg/mL (≈ 1.46 µM)
  MIC90: 0.25 µg/mL (≈ 1.46 µM)
[1]; isolate 426749 T
  MIC: 0.25 µg/mL (≈ 1.46 µM)
[1]; isolate 426766 Q
  MIC: 0.25 µg/mL (≈ 1.46 µM)
[1]; isolate 426788 8a
  MIC: 0.25 µg/mL (≈ 1.46 µM)
[1]; isolate 426788 C
  MIC: 0.25 µg/mL (≈ 1.46 µM)
[1]; isolate 427522 8
  MIC: 0.25 µg/mL (≈ 1.46 µM)
[1]; isolate 600770 O
  MIC: 0.25 µg/mL (≈ 1.46 µM)
[1]; isolate 600790 N
  MIC: 0.25 µg/mL (≈ 1.46 µM)
[1]; isolate 600831 9
  MIC: 0.25 µg/mL (≈ 1.46 µM)
[1]; isolate 600837 18
  MIC: 0.25 µg/mL (≈ 1.46 µM)
[1]; isolate 600861 P
  MIC: 0.25 µg/mL (≈ 1.46 µM)
[1]; isolate 602236 E3
  MIC: 50.2 µg/mL (≈ 294 µM)
[1]; isolate 602241 D
  MIC: 0.25 µg/mL (≈ 1.46 µM)
[1]; isolate 602241 F
  MIC: 0.25 µg/mL (≈ 1.46 µM)
[1]; isolate 602270 A
  MIC: 0.25 µg/mL (≈ 1.46 µM)
[1]; isolate 602282 I
  MIC: 0.25 µg/mL (≈ 1.46 µM)
[1]; isolate 602302 22
  MIC: 0.25 µg/mL (≈ 1.46 µM)
[1]; isolate 602305 I
  MIC: 0.25 µg/mL (≈ 1.46 µM)
[1]; isolate 602324 8
  MIC: 0.25 µg/mL (≈ 1.46 µM)
[1]; isolate 602672 12A
  MIC: 0.25 µg/mL (≈ 1.46 µM)
Prevotella amnii; # tested 33
  MIC Range: 0.25 to 2 µg/mL
Prevotella amnii; MIC […], 33 samples
  Number of strains with indicated MIC: 1
Prevotella amnii; Prevotella amnii, isolate 601203 4
  MIC: 1 µg/mL (≈ 5.84 µM)
Prevotella amnii; Prevotella amnii, isolate 601256 11
  MIC: 1 µg/mL (≈ 5.84 µM)
Prevotella amnii; Prevotella amnii, isolate 601258 25
  MIC: 0.5 µg/mL (≈ 2.92 µM)
Prevotella amnii; Prevotella amnii, isolate 601261 E
  MIC: 1 µg/mL (≈ 5.84 µM)
Prevotella amnii; Prevotella amnii, isolate 601266 20
  MIC: 0.5 µg/mL (≈ 2.92 µM)
Prevotella amnii; Prevotella amnii, isolate 601278 10
  MIC: 1 µg/mL (≈ 5.84 µM)
Prevotella amnii; Prevotella amnii, isolate 601287 HH
  MIC: 0.5 µg/mL (≈ 2.92 µM)
Prevotella amnii; Prevotella amnii, isolate 601291 41
  MIC: 1 µg/mL (≈ 5.84 µM)
Prevotella amnii; Prevotella amnii, isolate 601293 29
  MIC: 1 µg/mL (≈ 5.84 µM)
Prevotella amnii; Prevotella amnii, isolate 601305 A
  MIC: 2 µg/mL (≈ 11.7 µM)
Prevotella amnii; Prevotella amnii, isolate 601311 K
  MIC: 0.5 µg/mL (≈ 2.92 µM)
Prevotella amnii; Prevotella amnii, isolate 601314 19
  MIC: 2 µg/mL (≈ 11.7 µM)
Prevotella amnii; Prevotella amnii, isolate 601318 G
  MIC: 1 µg/mL (≈ 5.84 µM)
Prevotella amnii; Prevotella amnii, isolate 601336 33
  MIC: 1 µg/mL (≈ 5.84 µM)
Prevotella amnii; Prevotella amnii, isolate 601340 37
  MIC: 2 µg/mL (≈ 11.7 µM)
Prevotella amnii; Prevotella amnii, isolate 601341 H
  MIC: 1 µg/mL (≈ 5.84 µM)
Prevotella amnii; Prevotella amnii, isolate 601350 A
  MIC: 0.5 µg/mL (≈ 2.92 µM)
Prevotella amnii; Prevotella amnii, isolate 601365 6
  MIC: 0.25 µg/mL (≈ 1.46 µM)
Prevotella amnii; Prevotella amnii, isolate 601368 24
  MIC: 0.5 µg/mL (≈ 2.92 µM)
Prevotella amnii; Prevotella amnii, isolate 601369 13
  MIC: 2 µg/mL (≈ 11.7 µM)
Prevotella amnii; Prevotella amnii, isolate 601375 L
  MIC: 1 µg/mL (≈ 5.84 µM)
Prevotella amnii; Prevotella amnii, isolate 601377 9
  MIC: 1 µg/mL (≈ 5.84 µM)
Prevotella amnii; Prevotella amnii, isolate 601379 24
  MIC: 1 µg/mL (≈ 5.84 µM)
Prevotella amnii; Prevotella amnii, isolate 601388 G
  MIC: 1 µg/mL (≈ 5.84 µM)
Prevotella amnii; Prevotella amnii, isolate 601399 10
  MIC: 1 µg/mL (≈ 5.84 µM)
Prevotella amnii; Prevotella amnii, isolate 601405 A
  MIC: 1 µg/mL (≈ 5.84 µM)
Prevotella amnii; Prevotella amnii, isolate 601411 L
  MIC: 1 µg/mL (≈ 5.84 µM)
Prevotella amnii; Prevotella amnii, isolate 601413 10
  MIC: 1 µg/mL (≈ 5.84 µM)
Prevotella amnii; Prevotella amnii, isolate 601418 27
  MIC: 1 µg/mL (≈ 5.84 µM)
Prevotella amnii; Prevotella amnii, isolate 601426 A
  MIC: 1 µg/mL (≈ 5.84 µM)
Prevotella amnii; Prevotella amnii, isolate 601430 14
  MIC: 1 µg/mL (≈ 5.84 µM)
Prevotella amnii; Prevotella amnii, isolate 601434 13
  MIC: 0.5 µg/mL (≈ 2.92 µM)
Prevotella amnii; Prevotella amnii, isolate 601458 13
  MIC: 1 µg/mL (≈ 5.84 µM)
Prevotella amnii; Prevotella amnii, # tested 33
  MIC50: 1 µg/mL (≈ 5.84 µM)
  MIC90: 2 µg/mL (≈ 11.7 µM)
Peptoniphilus harei; # tested 23
  MIC Range: 1 to 4 µg/mL
Peptoniphilus harei; Peptoniphilus harei, isolate 426868V D
  MIC: 2 µg/mL (≈ 11.7 µM)
Peptoniphilus harei; Peptoniphilus harei, isolate 601098V Q
  MIC: 1 µg/mL (≈ 5.84 µM)
Peptoniphilus harei; Peptoniphilus harei, isolate 601203V 8
  MIC: 2 µg/mL (≈ 11.7 µM)
Peptoniphilus harei; Peptoniphilus harei, isolate 601212V 15
  MIC: 1 µg/mL (≈ 5.84 µM)
Peptoniphilus harei; Peptoniphilus harei, isolate 601233V R
  MIC: 4 µg/mL (≈ 23.4 µM)
Peptoniphilus harei; Peptoniphilus harei, isolate 601248V 23
  MIC: 1 µg/mL (≈ 5.84 µM)
Peptoniphilus harei; Peptoniphilus harei, isolate 601259V 11
  MIC: 2 µg/mL (≈ 11.7 µM)
Peptoniphilus harei; Peptoniphilus harei, isolate 601289V C
  MIC: 2 µg/mL (≈ 11.7 µM)
Peptoniphilus harei; Peptoniphilus harei, isolate 601293V 21
  MIC: 1 µg/mL (≈ 5.84 µM)
Peptoniphilus harei; Peptoniphilus harei, isolate 601302V F1
  MIC: 2 µg/mL (≈ 11.7 µM)
Peptoniphilus harei; Peptoniphilus harei, isolate 601311V R
  MIC: 1 µg/mL (≈ 5.84 µM)
Peptoniphilus harei; Peptoniphilus harei, isolate 601326V F
  MIC: 2 µg/mL (≈ 11.7 µM)
Peptoniphilus harei; Peptoniphilus harei, isolate 601342V F
  MIC: 1 µg/mL (≈ 5.84 µM)
Peptoniphilus harei; Peptoniphilus harei, isolate 601355V D
  MIC: 1 µg/mL (≈ 5.84 µM)
Peptoniphilus harei; Peptoniphilus harei, isolate 601365V 14
  MIC: 1 µg/mL (≈ 5.84 µM)
Peptoniphilus harei; Peptoniphilus harei, isolate 601374V F
  MIC: 2 µg/mL (≈ 11.7 µM)
Peptoniphilus harei; Peptoniphilus harei, isolate 601388V Q
  MIC: 1 µg/mL (≈ 5.84 µM)
Peptoniphilus harei; Peptoniphilus harei, isolate 601399V 16
  MIC: 1 µg/mL (≈ 5.84 µM)
Peptoniphilus harei; Peptoniphilus harei, isolate 601409V L
  MIC: 1 µg/mL (≈ 5.84 µM)
Peptoniphilus harei; Peptoniphilus harei, isolate 601413V 16
  MIC: 2 µg/mL (≈ 11.7 µM)
Peptoniphilus harei; Peptoniphilus harei, isolate 601426V D
  MIC: 1 µg/mL (≈ 5.84 µM)
Peptoniphilus harei; Peptoniphilus harei, isolate 601430V 22
  MIC: 1 µg/mL (≈ 5.84 µM)
Peptoniphilus harei; Peptoniphilus harei, isolate 601539V 25B
  MIC: 2 µg/mL (≈ 11.7 µM)
Peptoniphilus harei; [6]
  MIC50: 1 µg/mL (≈ 5.84 µM)
  MIC90: 2 µg/mL (≈ 11.7 µM)
[2]
  Acceptable Range of MIC for control strain: 0.5 to 2 µg/mL
